{"source": "patent US10934439B2", "about": "“Additives for coating compositions and related methods” (Massachusetts Institute of Technology, priority 2017, dated 2021)", "key": {"[1]": {"assay": "Electrochemical impedance spectroscopy (EIS) of galvanized steel in 3.5% NaCl with additives", "settings": "for η, inhibitor efficiency from EIS: 3.5% NaCl, 25° C, pH 5.6, additive 10 mg/mL", "protocol": "The electrochemical open-to-air cell (PTC1™ Paint Test Cell, Gamry Instruments, Warminster, Pa.) was utilized for the potentiodynamic polarization (Tafel tests) and electrochemical impedance spectroscopy experiments. […] Tafel tests (ASTM GS) were conducted using a Parstat PMC-2000 multichannel potentiostat equipped with Versa Studio 2.50.3 software (Princeton Applied Research, Oak Ridge, Tenn.). Tafel tests were modeled with a ZSIMPWIN™ software for complex nonlinear least square analyses fitting the circuit models of the electrode interface to the Nyquist amplitude of 10 mV at the open circuit potential in the frequency range of 100 kHz to 0.2 Hz. […] In a series of measurements with the corrosion inhibiting additives, a range of the additive concentrations was studied and the scan range was set from 150 mV below the open circuit voltage (OCV) to 200 mV more positive than the OCV, with three measurements for each condition. The range in these measurements was limited in order to minimize the cathodic polarization causing local pH changes.\nEIS (FIGS. 17A and 17B) was applied to further reveal the effects of the corrosion inhibitors on the electrolyte-galvanized steel electrode interface and to complement the potentiodynamic polarization measurements. The qualitative information was obtained using fit analysis embedded into the software used to model the spectra, employing electrical equivalent circuits (EECs).\nElements of the EECs are described in the legend to FIGS. 17A and 17B. The corrosion resistance of the galvanized steel surface in the presence of the corrosion inhibitor represents the RCT+Rp sum. In the control measurement without the additive, the spectrum with one time constant EEC was used, wherein the electrode resistance is represented by RCT.\nEIS measurements enabled estimation of the corrosion inhibition efficiency: […]"}, "[2]": {"assay": "Potentiodynamic polarization (Tafel tests) of galvanized steel in 3.5% NaCl with additives", "settings": "for Corrosion rate / Icorr (corrosion current density) / IE, inhibitor efficiency from Tafel: 25° C; for formation of white rust on the steel working electrode: millimolar or higher concentrations in 3.5% NaCl; for corrosion inhibitor efficiency compared with other additives: pH 5.3, equivalent concentrations", "excerpt": "The electrochemical open-to-air cell (PTC1™ Paint Test Cell, Gamry Instruments, Warminster, Pa.) was utilized for the potentiodynamic polarization (Tafel tests) and electrochemical impedance spectroscopy experiments. The electrochemical cell was composed of working electrode made of galvanized steel (zinc-galvanized sheets of type B carbon steel, ASTM A653, total thickness 0.305 mm, working area 2.2 cm^2 or 15.2 cm^2, McMaster Carr Supply Co., Robbinsvill, N.J.), reference Ag/AgCl electrode, and Pt wire auxiliary electrode (BASK) Corp., West Lafayette, Ind.). Prior to the immersion in the electrolyte (3.5% NaCl, pH adjusted to 5.25-5.3, 40 mL), the working electrodes were washed by acetone, ethanol, dried by nitrogen flow and polished with P1200 grit.^24 The working electrode was immersed into electrolyte containing the tested compound at a given concentration with desired pH at 25° C. for 60 min prior to each measurement. […] The carbon steel used herein was coated with the average minimum coating thickness per ASTM A653 being 2.0 mils (0.0508 mm) per surface. Tafel tests (ASTM GS) were conducted using a Parstat PMC-2000 multichannel potentiostat equipped with Versa Studio 2.50.3 software (Princeton Applied Research, Oak Ridge, Tenn.). Tafel tests were modeled with a ZSIMPWIN™ software for complex nonlinear least square analyses fitting the circuit models of the electrode interface to the Nyquist amplitude of 10 mV at the open circuit potential in the frequency range of 100 kHz to 0.2 Hz. Parameters for Tafel tests were as follows: initial potential, −1.25 V (vs reference); final potential, −0.45 V; scan properties: step height, 0.5 mV, step time, 2 s. In a series of measurements with the corrosion inhibiting additives, a range of the additive concentrations was studied and the scan range was set from 150 mV below the open circuit voltage (OCV) to 200 mV more positive than the OCV, with three measurements for each condition. The range in these measurements was limited in order to minimize the cathodic polarization causing local pH changes.\nIn the vicinity of Ecorr both currents are present in the specimen, but experimentally it is possible to measure only the net current. The net current has a single measurable polarity, either positive or negative. At Ecorr the net measured current is exactly zero. The corrosion current (icorr) is expressed as (for definitions, see FIG. 13):\n[formula] where E.W. is the equivalent weight of the corroding species, g. In this case, the corroding species is Zn, so E.W.=32.7 g. Icorr, is the corrosion current density in μA/cm^2, and d is the density of the corroding species. Density of zinc is 7.140 g/cm^3.\nFrom the icorr values, inhibitor efficiencies (IE, %) were calculated as (equation (1)): […]"}, "[3]": {"settings": "cited from earlier work"}, "[4]": {"settings": "cited from earlier work", "remark": "listed apart in the source"}, "[5]": {"settings": "44.7 mM, electrolyte containing 0.0165 wt % NaCl (pH not stated); cited from earlier work"}, "[6]": {"assay": "Hygroscopicity on standing in an open jar at 80% relative humidity", "assay_type": "physicochemical", "settings": "converted to pasty solid", "protocol": "The crystals were hygroscopic and converted to caramel-like, pasty solid on standing in an open jar at 80% relative humidity. […] Thermogravimetric analysis (TGA) and simultaneous differential scanning calorimetry (DSC) were conducted using a Q600 TGA/DSC instrument (TA Instruments, Inc.). Samples were subjected to heating scans (10 or 20° C./min) in a temperature ramp mode under nitrogen atmosphere."}, "[7]": {"assay": "Solubility / dissolution testing"}, "[8]": {"settings": "3.5% NaCl, pH 5.3, [Mg2+] 71.8, [Ac−] 144, [TDPA] 0 meq/L"}, "[9]": {"settings": "3.5% NaCl, pH 5.6, additive 10 mg/mL"}, "[10]": {"settings": "3.5% NaCl, pH 2.1, [TDPA] 94.8 meq/L"}, "[11]": {"settings": "3.5% NaCl, pH 5.3, [TDPA] 47.4 meq/L"}, "[12]": {"settings": "3.5% NaCl, pH 5.3, [TDPA] 94.8 meq/L"}, "[13]": {"settings": "3.5% NaCl, pH 5.3, [Mg2+] 9.93, [Ac−] 9.93, [TDPA] 15.9 meq/L"}, "[14]": {"settings": "3.5% NaCl, pH 5.3, [Mg2+] 41.9, [Ac−] 41.9, [TDPA] 67.1 meq/L"}, "[15]": {"settings": "3.5% NaCl, pH 5.3, [Mg2+] 62.9, [Ac−] 62.9, [TDPA] 101 meq/L"}, "[16]": {"settings": "3.5% NaCl, pH 5.3, [Mg2+] 49.8, [TDPA] 49.8 meq/L"}, "[17]": {"settings": "3.5% NaCl, pH 5.3, [Mg2+] 167, [TDPA] 33.5 meq/L"}}, "data": [{"compound": "CC(=O)[O-].CC(=O)[O-].O.O.O.O.[Mg+2]", "note": "[MgAc2, magnesium acetate tetrahydrate, reference compound]", "values": [{"measurement": "η, inhibitor efficiency from EIS", "setting": "[1]", "result": 41, "unit": "%"}, {"measurement": "Corrosion rate", "setting": "[2]; [8]", "result": 37.0, "unit": "mpy"}, {"measurement": "Icorr (corrosion current density)", "setting": "[2]; [8]", "result": 62.1, "unit": "μA/cm^2"}, {"measurement": "Corrosion rate", "setting": "[2]; [9]", "result": 8.03, "unit": "mpy"}, {"measurement": "IE, inhibitor efficiency from Tafel", "setting": "[2]; [9]", "result": 48, "unit": "%"}, {"measurement": "Icorr (corrosion current density)", "setting": "[2]; [9]", "result": 13.5, "unit": "μA/cm^2"}]}, {"compound": "O=C(O)CCSCCC(=O)O", "note": "[TDPA, 3,3′-thiodipropionic acid, reference compound]", "values": [{"measurement": "pKa", "setting": "[3]", "result": 4.11}, {"measurement": "solubility in solvents", "setting": "[4]", "result": "soluble in water, acetone, and alcohol"}, {"measurement": "η, inhibitor efficiency from EIS", "setting": "[1]", "result": 81, "unit": "%"}, {"measurement": "Corrosion rate", "setting": "[2]; [10]", "result": 474, "unit": "mpy"}, {"measurement": "Icorr (corrosion current density)", "setting": "[2]; [10]", "result": 796, "unit": "μA/cm^2"}, {"measurement": "Corrosion rate", "setting": "[2]; [11]", "result": 26.5, "unit": "mpy"}, {"measurement": "Icorr (corrosion current density)", "setting": "[2]; [11]", "result": 44.5, "unit": "μA/cm^2"}, {"measurement": "Corrosion rate", "setting": "[2]; [12]", "result": 16.9, "unit": "mpy"}, {"measurement": "Icorr (corrosion current density)", "setting": "[2]; [12]", "result": 28.4, "unit": "μA/cm^2"}, {"measurement": "Corrosion rate", "setting": "[2]; [9]", "result": 2.47, "unit": "mpy"}, {"measurement": "IE, inhibitor efficiency from Tafel", "setting": "[2]; [9]", "result": 84, "unit": "%"}, {"measurement": "Icorr (corrosion current density)", "setting": "[2]; [9]", "result": 4.15, "unit": "μA/cm^2"}, {"measurement": "formation of white rust on the steel working electrode", "setting": "[2]", "result": "visibly reduced the formation of white rust"}]}, {"compound": "CCCCCCCCCC(=O)O", "note": "[decanoic acid]", "values": [{"measurement": "inhibition efficiency η", "setting": "[5]", "result": 83.5, "unit": "%"}]}, {"compound": "magnesium acetate thiodipropionate [MgAcTDPA]", "values": [{"measurement": "hygroscopicity of the crystals", "setting": "[6]", "result": "hygroscopic"}, {"measurement": "η, inhibitor efficiency from EIS", "setting": "[1]", "result": 80, "unit": "%"}, {"measurement": "Corrosion rate", "setting": "[2]; [13]", "result": 29.4, "unit": "mpy"}, {"measurement": "Icorr (corrosion current density)", "setting": "[2]; [13]", "result": 49.3, "unit": "μA/cm^2"}, {"measurement": "Corrosion rate", "setting": "[2]; [14]", "result": 7.9, "unit": "mpy"}, {"measurement": "Icorr (corrosion current density)", "setting": "[2]; [14]", "result": 13.3, "unit": "μA/cm^2"}, {"measurement": "Corrosion rate", "setting": "[2]; [15]", "result": 1.85, "unit": "mpy"}, {"measurement": "Icorr (corrosion current density)", "setting": "[2]; [15]", "result": 3.12, "unit": "μA/cm^2"}, {"measurement": "Corrosion rate", "setting": "[2]; [9]", "result": 2.41, "unit": "mpy"}, {"measurement": "IE, inhibitor efficiency from Tafel", "setting": "[2]; [9]", "result": 84, "unit": "%"}, {"measurement": "Icorr (corrosion current density)", "setting": "[2]; [9]", "result": 4.06, "unit": "μA/cm^2"}, {"measurement": "corrosion inhibitor efficiency compared with other additives", "setting": "[2]; 3.5% NaCl", "result": "the most efficient corrosion inhibitor"}, {"measurement": "formation of white rust on the steel working electrode", "setting": "[2]", "result": "visibly reduced the formation of white rust"}, {"measurement": "concentration on dissolution in warm ethanol", "setting": "[7]; warm ethanol", "result": "at least 10 wt %"}]}, {"compound": "magnesium thiodipropionate [MgTDPA1:1]", "values": [{"measurement": "increase in total resistance Ri=RCT+Rp versus Ro=RCT without inhibitor", "setting": "[1]; 10 mg/mL in 3.5% NaCl, pH 5.6, 25° C", "result": 283, "unit": "fold"}, {"measurement": "η, inhibitor efficiency from EIS", "setting": "[1]", "result": 99, "unit": "%"}, {"measurement": "effect on Icorr in Tafel plots (FIG. 16)", "setting": "[2]; 10 mg/mL in 3.5% NaCl, pH 5.6, versus no additive and other additives", "result": "reduced the Icorr values the most"}, {"measurement": "breakdown potentials (instability of the oxide film, pitting corrosion)", "setting": "[2]; 1-2 mM concentrations and above in the 3.5% NaCl electrolyte", "result": "increased"}, {"measurement": "Corrosion rate", "setting": "[2]; [16]", "result": 21.1, "unit": "mpy"}, {"measurement": "Icorr (corrosion current density)", "setting": "[2]; [16]", "result": 35.5, "unit": "μA/cm^2"}, {"measurement": "Corrosion rate", "setting": "[2]; [9]", "result": 1.07, "unit": "mpy"}, {"measurement": "IE, inhibitor efficiency from Tafel", "setting": "[2]; [9]", "result": 93, "unit": "%"}, {"measurement": "Icorr (corrosion current density)", "setting": "[2]; [9]", "result": 1.79, "unit": "μA/cm^2"}, {"measurement": "corrosion inhibitor effectiveness compared with controls (data in Table 1)", "setting": "[2]; galvanized steel, 3.5% NaCl", "result": "more effective corrosion inhibitor for galvanized steel than either TDPA or MgAc2"}, {"measurement": "formation of white rust on the steel working electrode", "setting": "[2]", "result": "visibly reduced the formation of white rust"}]}, {"compound": "magnesium thiodipropionate [MgTDPA5:1]", "values": [{"measurement": "η, inhibitor efficiency from EIS", "setting": "[1]", "result": 72, "unit": "%"}, {"measurement": "Corrosion rate", "setting": "[2]; [17]", "result": 50.7, "unit": "mpy"}, {"measurement": "Icorr (corrosion current density)", "setting": "[2]; [17]", "result": 85.1, "unit": "μA/cm^2"}, {"measurement": "Corrosion rate", "setting": "[2]; [9]", "result": 4.65, "unit": "mpy"}, {"measurement": "IE, inhibitor efficiency from Tafel", "setting": "[2]; [9]", "result": 69, "unit": "%"}, {"measurement": "Icorr (corrosion current density)", "setting": "[2]; [9]", "result": 7.82, "unit": "μA/cm^2"}, {"measurement": "corrosion inhibitor efficiency compared with other additives", "setting": "[2]; 3.5% NaCl", "result": "quite effective in reducing the corrosion rate"}, {"measurement": "solubility in the electrolyte", "setting": "[7]; 3.5% NaCl electrolyte, yielded a suspension", "result": "only fractionally soluble"}]}]}
